This series in a line: Stability testing of isothiocyanate compositions (60° C., HPLC). The series is classed as physicochemical. Particulars: sealed vials, day 10, HPLC. As for the experimental part:
Suitable amount of API (isothiocyanates, as control) and compositions were placed into clean vials, and sealed with rubber stoppers plus aluminum caps. All samples were stored at 60° C., and then assayed by a validated HPLC method at time day 0, day 5, and day 10.

On to `S=C=NCCc1ccccc1` [PEITC, phenethyl isothiocyanate], for which the “API % under 60° C. for 10 days” value is on record as 95.2%.

The values are drawn from patent publication US8410170B2, “Use of isothiocyanates compounds in treating prostatic diseases and skin cancer” (Wuxi JC Pharmaceutical Technology Co., Ltd., priority 2005, dated 2013).
